# From patent US7445765B2, “Radiopharmaceutical for diagnostic imaging containing a technetium-99m nitride heterocomplex” (Nihon Medi-Physics Co., Ltd., priority 2000, dated 2008)
# Assays:
# [1] = Biodistribution of the 99mTc(N) heterocomplexes in rats (organ uptake, heart accumulation, heart/lung and heart/liver ratios); type: in vivo, female Sprague-Dawley rats
# How it was run: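 Female Sprague-Dawley rats (200–250 g, n=3), ketamine/xylazine anaesthesia, got 300–370 kBq of each purified heterocomplex in pH 7.4 phosphate buffer (10% ethanol) via the jugular vein. They were killed at several post-injection times. Heart blood and washed, weighed organs were gamma-counted, taking whole blood as 6.5% of body weight.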
# [2] = Measurement of Log k′ by HPLC, PNP5 or PNP6 heterocomplexes; type: physicochemical; settings: HPLC C18, methanol/phosphate buffer (pH 7.4, 0.02M), 1.0 mL/min; extrapolated to 0% organic solvent
# Protocol: Log k′o values, measured at various compositions of the mobile phase, were determind for the ^99mTc(N) heterocomplexes obtained using PNP5 or PNP6 as a bisphosphinoamine compound. The analysis of the relationship between Log k′o values and the mobile-phase composition yielded extrapolated Log k′ values as a measure of the partitioning between the hydrophobic stationary phase and water. The Log k′ values were extrapolated from the linear part of the curve.
# TLC chromatography was carried out on silica-gel plates and using the mixture ethanol/chloroform/toluene/[NH4][CH3COO] (0.5 M) (5:3:3:0.5) as mobile phase. […] HPLC analysis was performed on a Beckman System Gold instrument equipped with a Programmable Solvent Module 126, a scanning detector Module 166 and a radioisotope detector Module 170. A C18 reversed-phase precolumn (Ultrasphere Beckman, 4.6×45 mm), a C18 reversed-phase column (Ultrasphere Beckman, 4.6×250 mm) and a 100-μL loop were used. The mobile phase was methanol in various mixtures (% v/v) with a phosphate buffer (pH=7.4, 0.02M) at a flow rate of 1.0 mL min^−1. Before injection, all solutions were purified using a CM Sep-Pak cartridge. […]
structure (smiles),measurement,setting,value
CCOCCN1CC[P](CCCOC)(CCCOC)[99Tc+]2(#[N])([S]C(N(CCOCC)CCOCC)=[S]2)[P](CCCOC)(CCCOC)CC1 [[^99mTc(N) (PNP5) (DBODC)]^+],Biodistribution in rats: Adrenal glands,[1]; 0 min post injection,2.87 % dose/g
same,Biodistribution in rats: Blood,[1]; 0 min post injection,6.65 % dose/g
same,Biodistribution in rats: Brain,[1]; 0 min post injection,0.45 % dose/g
same,Biodistribution in rats: Heart,[1]; 0 min post injection,5.01 % dose/g
same,Biodistribution in rats: Intestine,[1]; 0 min post injection,1.71 % dose/g
same,Biodistribution in rats: Kidneys,[1]; 0 min post injection,3.71 % dose/g
same,Biodistribution in rats: Liver,[1]; 0 min post injection,0.82 % dose/g
same,Biodistribution in rats: Lungs,[1]; 0 min post injection,6.58 % dose/g
same,Biodistribution in rats: Muscle,[1]; 0 min post injection,0.09 % dose/g
same,Biodistribution in rats: Spleen,[1]; 0 min post injection,1.75 % dose/g
same,Biodistribution in rats: Submax. glands,[1]; 0 min post injection,0.16 % dose/g
same,Biodistribution in rats: Adrenal glands,[1]; 2 min post injection,3.95 % dose/g
same,Biodistribution in rats: Blood,[1]; 2 min post injection,0.11 % dose/g
same,Biodistribution in rats: Brain,[1]; 2 min post injection,0.03 % dose/g
same,Biodistribution in rats: Heart,[1]; 2 min post injection,3.94 % dose/g
same,Biodistribution in rats: Intestine,[1]; 2 min post injection,7.97 % dose/g
same,Biodistribution in rats: Kidneys,[1]; 2 min post injection,14.69 % dose/g
same,Biodistribution in rats: Liver,[1]; 2 min post injection,2.66 % dose/g
same,Biodistribution in rats: Lungs,[1]; 2 min post injection,0.99 % dose/g
same,Biodistribution in rats: Muscle,[1]; 2 min post injection,0.20 % dose/g
same,Biodistribution in rats: Spleen,[1]; 2 min post injection,2.68 % dose/g
same,Biodistribution in rats: Submax. glands,[1]; 2 min post injection,1.77 % dose/g
same,Biodistribution in rats: Adrenal glands,[1]; 10 min post injection,3.73 % dose/g
same,Biodistribution in rats: Blood,[1]; 10 min post injection,0.03 % dose/g
same,Biodistribution in rats: Brain,[1]; 10 min post injection,0.01 % dose/g
same,Biodistribution in rats: Heart,[1]; 10 min post injection,3.69 % dose/g
same,Biodistribution in rats: Intestine,[1]; 10 min post injection,9.04 % dose/g
same,Biodistribution in rats: Kidneys,[1]; 10 min post injection,9.16 % dose/g
same,Biodistribution in rats: Liver,[1]; 10 min post injection,1.61 % dose/g
same,Biodistribution in rats: Lungs,[1]; 10 min post injection,0.88 % dose/g
same,Biodistribution in rats: Muscle,[1]; 10 min post injection,0.21 % dose/g
same,Biodistribution in rats: Spleen,[1]; 10 min post injection,1.79 % dose/g
same,Biodistribution in rats: Submax. glands,[1]; 10 min post injection,1.79 % dose/g
same,Biodistribution in rats: Adrenal glands,[1]; 20 min post injection,3.00 % dose/g
same,Biodistribution in rats: Blood,[1]; 20 min post injection,0.02 % dose/g
same,Biodistribution in rats: Brain,[1]; 20 min post injection,0.01 % dose/g
same,Biodistribution in rats: Heart,[1]; 20 min post injection,3.63 % dose/g
same,Biodistribution in rats: Intestine,[1]; 20 min post injection,9.63 % dose/g
same,Biodistribution in rats: Kidneys,[1]; 20 min post injection,6.58 % dose/g
same,Biodistribution in rats: Liver,[1]; 20 min post injection,0.96 % dose/g
same,Biodistribution in rats: Lungs,[1]; 20 min post injection,0.57 % dose/g
same,Biodistribution in rats: Muscle,[1]; 20 min post injection,0.17 % dose/g
same,Biodistribution in rats: Spleen,[1]; 20 min post injection,1.41 % dose/g
same,Biodistribution in rats: Submax. glands,[1]; 20 min post injection,1.57 % dose/g
same,Biodistribution in rats: Adrenal glands,[1]; 30 min post injection,3.36 % dose/g
same,Biodistribution in rats: Blood,[1]; 30 min post injection,0.02 % dose/g
same,Biodistribution in rats: Brain,[1]; 30 min post injection,0.01 % dose/g
same,Biodistribution in rats: Heart,[1]; 30 min post injection,3.73 % dose/g
same,Biodistribution in rats: Intestine,[1]; 30 min post injection,6.70 % dose/g
same,Biodistribution in rats: Kidneys,[1]; 30 min post injection,6.70 % dose/g
same,Biodistribution in rats: Liver,[1]; 30 min post injection,0.72 % dose/g
same,Biodistribution in rats: Lungs,[1]; 30 min post injection,0.64 % dose/g
same,Biodistribution in rats: Muscle,[1]; 30 min post injection,0.19 % dose/g
same,Biodistribution in rats: Spleen,[1]; 30 min post injection,0.92 % dose/g
same,Biodistribution in rats: Submax. glands,[1]; 30 min post injection,1.88 % dose/g
same,Biodistribution in rats: Adrenal glands,[1]; 60 min post injection,4.17 % dose/g
same,Biodistribution in rats: Blood,[1]; 60 min post injection,0.01 % dose/g
same,Biodistribution in rats: Brain,[1]; 60 min post injection,0.01 % dose/g
same,Biodistribution in rats: Heart,[1]; 60 min post injection,3.76 % dose/g
same,Biodistribution in rats: Intestine,[1]; 60 min post injection,6.52 % dose/g
same,Biodistribution in rats: Kidneys,[1]; 60 min post injection,5.73 % dose/g
same,Biodistribution in rats: Liver,[1]; 60 min post injection,0.20 % dose/g
same,Biodistribution in rats: Lungs,[1]; 60 min post injection,0.46 % dose/g
same,Biodistribution in rats: Muscle,[1]; 60 min post injection,0.21 % dose/g
same,Biodistribution in rats: Spleen,[1]; 60 min post injection,0.41 % dose/g
same,Biodistribution in rats: Submax. glands,[1]; 60 min post injection,1.84 % dose/g
same,Biodistribution in rats: Adrenal glands,[1]; 120 min post injection,3.44 % dose/g
same,Biodistribution in rats: Blood,[1]; 120 min post injection,0.01 % dose/g
same,Biodistribution in rats: Brain,[1]; 120 min post injection,0.00 % dose/g
same,Biodistribution in rats: Heart,[1]; 120 min post injection,3.31 % dose/g
same,Biodistribution in rats: Intestine,[1]; 120 min post injection,6.57 % dose/g
same,Biodistribution in rats: Kidneys,[1]; 120 min post injection,3.48 % dose/g
same,Biodistribution in rats: Liver,[1]; 120 min post injection,0.10 % dose/g
same,Biodistribution in rats: Lungs,[1]; 120 min post injection,0.25 % dose/g
same,Biodistribution in rats: Muscle,[1]; 120 min post injection,0.23 % dose/g
same,Biodistribution in rats: Spleen,[1]; 120 min post injection,0.21 % dose/g
same,Biodistribution in rats: Submax. glands,[1]; 120 min post injection,2.09 % dose/g
same,LOG k′,[2],3.69
